For one test, the target named is T1, murine PGP-P127E (Mus musculus, UniProt Q8CHP8, P127E).
T1 construct: His6 (N, cleaved yes); made in house; host or cells: Escherichia coli BL21 (DE3), pETM-11
T1 sequence (Q8CHP8 1-321 P127E): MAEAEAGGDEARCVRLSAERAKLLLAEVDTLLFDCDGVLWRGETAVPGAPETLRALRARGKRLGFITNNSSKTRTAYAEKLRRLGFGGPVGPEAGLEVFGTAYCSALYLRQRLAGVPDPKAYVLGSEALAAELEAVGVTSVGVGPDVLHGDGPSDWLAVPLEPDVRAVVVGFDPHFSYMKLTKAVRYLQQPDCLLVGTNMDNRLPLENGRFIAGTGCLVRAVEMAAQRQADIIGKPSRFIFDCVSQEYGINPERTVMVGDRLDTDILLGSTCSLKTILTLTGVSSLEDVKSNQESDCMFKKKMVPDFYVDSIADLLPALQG
The test is described as follows: Isothermal titration calorimetry, PGP-P127E. The class given is binding. The conditions noted are these: ITC.

In a further test the test system is HT1080 cells. The test is described as follows: Lipid droplet staining (perilipin-3). It counts as cell-based, human. As for the experimental part: Cells were fixed for 15 min with 4% para-formaldehyde, permeabilized and blocked with 0.2% saponin/2% bovine serum albumin (BSA) for 1 hr, and immunostained for 1 hr using α-rabbit TIP47/perilipin 3 antibodies (1:100 dilution, abcam #47638) in 0.2% saponin/1% BSA. Primary antibodies were detected with Alexa Fluor 488-labeled goat anti-rabbit secondary antibodies (1:400; Molecular Probes/Thermo Fisher Scientific), and nuclei were counterstained with DAPI. Cells were mounted with Immu-Mount (Fisher Scientific), and imaged by fluorescence microscopy on a THUNDER imager (THUNDER Imager Live Cell & 3D Cell Culture & 3D Assay system, Leica DMI8; Leica Microsystems), using a 63 × objective and the Leica Application suite X software 3.7.4.23463. To determine the number of lipid droplets per cell, cell borders were defined semi-automatically, and bright objects in this region of interest were counted using the ImagePro-Plus software version 7.0. Statistical significance was assessed using GraphPad Prism 9.4.1 software.

In test [1] the target is T2, murine PGP (Mus musculus, UniProt Q8CHP8).
T2 sequence (Q8CHP8 1-321): T1 sequence (Q8CHP8 1-321 P127E) with E127P
Put plainly: IC50 determination, murine PGP, 4-phosphoerythronate (4PE) dephosphorylation. The conditions noted are these: for M.m PGP on 4-Phosphoerythronate: activity, control = 100.

The target in test [2] is T2, murine PGP. Put plainly: IC50 determination, murine PGP, glycerol 3-phosphate (G3P) dephosphorylation (EnzChek).
The next test addresses T3, NANP/HDHD4 (Mus musculus, UniProt Q9CPT3).
T3 construct: made in house; host or cells: Escherichia coli BL21 (DE3), pETM11 (cDNA from Origene #MR203153)
T3 sequence (Q9CPT3 1-248): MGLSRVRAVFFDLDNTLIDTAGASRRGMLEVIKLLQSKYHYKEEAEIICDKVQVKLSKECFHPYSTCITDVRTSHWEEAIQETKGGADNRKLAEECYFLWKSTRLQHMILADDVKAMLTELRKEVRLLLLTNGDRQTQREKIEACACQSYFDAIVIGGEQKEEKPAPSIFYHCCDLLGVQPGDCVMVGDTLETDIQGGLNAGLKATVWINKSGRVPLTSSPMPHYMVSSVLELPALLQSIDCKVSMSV
The test is described as follows: In vitro phosphatase activity assay, NANP/HDHD4 (6-phosphogluconate). It counts as biochemical, murine. The conditions noted are these: NANP activity on 6-phosphogluconate. The text has this: The following phosphatase constructs (in pCMV6) were purchased from Origene: murine LHPP (NM_029609; catalog #MC211738), murine LPIN1, transcript variant 2 (NM_015763, #MC204460), murine MDP1 (NM_023397, #MR201315), murine […]_026086, #MR203153), murine NT5C (NM_015807, #MR202028), human NT5M (NM_020201, #RC207737), murine PNKP (NM_021549, #MR207938), and murine PSPH (NM_133900, #MR202626). Purified human NT5C1A (NM_032526, #TP324617) and purified human PHOSPHO1 (NM_178500, #TP314434) were from Origene. The murine PHOSPHO2 construct (in pFLCI) was from Source BioScience (clone ID: I420023L04). Calf intestinal alkaline phosphatase (CIP) was from NEB. Purified, recombinant human calcineurin (PP2B) and human PTP1B (residues 1-322) were from Millipore (#207005 or #539736, respectively). […] The 3'-P-oligonucleotide 5'-[NT]^3-]-3' was used as a PNKP substrate. […] Data were analyzed with GraphPad Prism 7.04. […] (c) Upper panel, purity of the tested, recombinant phosphatases (10 μg of protein/lane). A Coomassie Blue-stained gel is shown. Tested enzymes that are not included in this panel were obtained commercially. Lower panel , Western blots showing the overexpression of the myc-tagged cytosolic 5', 3'-nucleotidase NT5C and mitochondrial 5', 3'-nucleotidase NT5M in HEK293 cells (uncropped blots in Source Data). […] Error bars not shown are hidden by the symbols. […]

Numbering of substitutions follows the chain as printed. “And” between values parts separate entries of the source, which are not always exact repeats. Equal values may be shown once. “Also recorded” adds a separate entry of the source.

Method for murine PGP-P127E: Purified murine PGP-WT or PGP-P127E was dialyzed overnight against ITC buffer (30 mM HEPES, 30 mM NaCl, 5 mM MgCl2, 1 mM tris(2-carboxyethyl)phosphine/TCEP; pH 7.5). All calorimetric measurements were performed at 25 °C on an ITC200 microcalorimeter (GE Healthcare). Experiments were conducted with a fixed concentration of 2% DMSO. […] To reduce the effects of ligand leakage from the syringe during baseline equilibration, the heat release of a single 1.2 μL injection was recorded prior to the actual titration experiment, and discarded during data analysis with Nitpic 2.0.7[45]. To determine background heats of dilution, control experiments of ligand into buffer, buffer into protein and buffer into buffer titrations were performed.

Turning to `O=C(Nc1ccccc1C(=O)O)c1ccc(Oc2ccc(C(=O)Nc3ccccc3C(=O)O)cc2)cc1` [CP1], the “n, stoichiometry” value at murine PGP-P127E was found to be 1.15 ± 0.04. On murine PGP-P127E ([…]), this compound returned a Kd of 11.9 ± 0.41 µM. In the test on HT1080 cells, the “lipid droplet (LD) accumulation” value is “time- and concentration-dependent accumulation of LDs; also recorded: effectively increased LDs in PGP-WT but not in PGP-KO cells”. The half-maximal inhibitory concentration (IC50) worked out at 0.44 ± 0.06 µM against murine PGP [1] and 1.04 ± 0.08 µM on murine PGP [2]. In addition, the “M.m PGP on 4-Phosphoerythronate” value at murine PGP [1] (CP1 log[M] -5.34679) is 4.5082 and 7.8838 and 6.1475; at murine PGP [1] (CP1 log[M] -5.94885), 24.5902 and 29.0456 and 23.7705; on murine PGP [1] (CP1 log[M] -6.24988), 43.8525 and 48.1328 and 39.3443; on murine PGP [1] (CP1 log[M] -6.55091), 54.0984 and 64.3154 and 65.9836; at murine PGP [1] (CP1 log[M] -6.85194), 70.4918 and 82.5726 and 78.6885. In addition, the remaining activity at 8 µM at murine PGP [2] (read-out: M.m PGP on G3P, activity, control = 100, CP1 log[M] -5.09691) amounted to 13.8%. For the same compound, on murine PGP [2] (read-out: M.m PGP on G3P, activity, control = 100, CP1 log[M] -5.39794), the remaining activity at 4 µM worked out at 19.5%. The remaining activity at 2 µM at murine PGP [2] (read-out: M.m PGP on G3P, activity, control = 100, CP1 log[M] -5.69897) came to 32.5%. Besides, the remaining activity at 1 µM on murine PGP [2] (read-out: M.m PGP on G3P, activity, control = 100, CP1 log[M] -6) is 53.8%. Moreover, the remaining activity at 0.5 µM at murine PGP [2] (read-out: M.m PGP on G3P, activity, control = 100, CP1 log[M] -6.30103) was 80%. Moreover, on murine PGP [2] (read-out: M.m PGP on G3P, activity, control = 100, CP1 log[M] -6.60206), the remaining activity at […] worked out at 91.2%. Also, the remaining activity at 0.125 µM at murine PGP [2] (read-out: M.m PGP on G3P, activity, control = 100, CP1 log[M] -6.90309) was determined as 96.2%. The remaining activity at 0.0625 µM at murine PGP [2] (read-out: M.m PGP on G3P, activity, control = 100, CP1 log[M] -7.20412) was 98.8%. Besides, at murine PGP [2] (read-out: M.m PGP on G3P, activity, control = 100, CP1 log[M] -7.50515), the remaining activity at 0.03125 µM came out at 91.2%.
`COc1ccc(C(=O)Nc2ccc(Cc3ccc(NC(=O)c4ccc(OC)c(OC)c4)c(C(=O)O)c3)cc2C(=O)O)cc1OC` [CP2]: on NANP/HDHD4, the IC50 was ~1 µM.

The values are drawn from PMC9652372, “Glycolytic flux control by drugging phosphoglycolate phosphatase” (Nature Communications, 2022).
